“And” between values parts separate entries of the source, which are not always exact repeats. Equal entries are not always repeated.
Tests used:
Assay in all cases: CTG-3D luminescence at 96 h relative to day-0 seeding control (ratio to day 0); higher = more growth / less cytotoxicity; PDxO 3D drug screen (set 2), 96 h, CTG-3D normalised to day-0 seeding control.
[1] = system: HCI-008 (organoid from a HER2-enriched breast cancer xenograft)
[2] = system: HCI-012 (organoid from a breast cancer xenograft)
[3] = system: HCI-023 (organoid from a triple-negative breast cancer xenograft)
[4] = system: MDA-MB-231
[5] = system: HCI-019 (organoid from a triple-negative breast cancer xenograft)

Cc1c(CN2CCN(C(=O)[C@H](C)O)CC2)sc2c(N3CCOCC3)nc(-c3cnc(N)nc3)nc12 [apitolisib]
CTG-3D luminescence at 96 h
Conditions | 12.5 pM | 0.00025 µM | 0.005 µM | 0.1 µM | 1 µM | 10 µM | 100 µM | 625 fM
[1], days in culture: 325 | 1.41 | 2 | 1.65 | 1.78 | 0.742 | 0.507 | 0.435 | 1.77
[1], days in culture: 340 | 1.4 | 1.81 | 1.5 | 0.702 | 0.415 | – | 0.351 | 1.52
[1], days in culture: 354 | 1.55 | 1.16 | 2.04 | 1.34 | 0.285 | 0.344 | 0.491 | 1.32
[1], days in culture: 382 | 1.87 | 1.72 | 0.949 | 0.687 | 0.13 | 0.258 | 0.331 | 1.49
[2], days in culture: 214 | 3.46 | 3.38 | 1.52 | 1.74 | 0.672 | 0.176 | 0.0363 | 3.26
[2], days in culture: 243 | 2.34 | 2.6 | 2.13 | 1.48 | 0.554 | 0.118 | 0.0299 | 2.51
[2], days in culture: 256 | 2.08 | 2.2 | 2.08 | 2.67 | 0.805 | 0.1 | 0.0191 | 2.05
[2], days in culture: 284 | 2.16 | 2.93 | 1.47 | 1.97 | 0.681 | 0.102 | 0.0089 | 3.29
[3], days in culture: 223 | 2.19 | 2.65 | 1.81 | 1.85 | 0.861 | 0.971 | 0.469 | 2.04
[3], days in culture: 238 | 1.77 | 1.62 | 1.45 | 1.58 | 1.5 | 0.763 | 0.38 | 1.65
[3], days in culture: 252 | 1.95 | 1.92 | 1.7 | 2.06 | 1.62 | 0.654 | 0.459 | 1.97
[5], days in culture: 173 | 2.46 | 1.25 | 0.933 | 2.29 | 0.88 | 0.36 | 0.336 | 1.93
[5], days in culture: 194 | 1.95 | 1.96 | 2.18 | 0.828 | 0.744 | 0.462 | 0.305 | 1.85
[5], days in culture: 215 | 0.992 | 1.33 | 1.51 | 0.699 | 0.362 | 0.15 | 0.168 | 1.4

[4]
Conditions | CTG-3D luminescence at 96 h
12.5 pM | 5.6 and 5.03
0.00025 µM | 5.7 and 4.98
0.005 µM | 5.72 and 5.32
0.1 µM | 5.01 and 4.5
1 µM | 2.91 and 2.98
10 µM | 2.31 and 2.38
100 µM | 0.873 and 0.875
625 fM | 5.53 and 5.09

CC(=O)c1c(C)c2cnc(Nc3ccc(N4CCNCC4)cn3)nc2n(C2CCCC2)c1=O [palbociclib]
CTG-3D luminescence at 96 h
Conditions | 12.5 pM | 0.00025 µM | 0.005 µM | 0.1 µM | 1 µM | 10 µM | 100 µM | 625 fM
[1], days in culture: 325 | 1.14 | 1.96 | 2.03 | 2.74 | 3.58 | 2.05 | 0.962 | 1.8
[1], days in culture: 340 | 0.654 | 3.19 | 1.76 | 2.01 | 2.37 | – | 1.18 | 1.13
[1], days in culture: 354 | 1.29 | 1.41 | 2.34 | 1 | 1.11 | 0.979 | 1.21 | 0.693
[1], days in culture: 382 | 1.83 | 1.31 | 1.55 | 1.83 | 1.16 | 1.66 | 0.974 | 1.59
[2], days in culture: 214 | 2.51 | 1.31 | 1.58 | 1.96 | 2.63 | 2.66 | 0.494 | 1.78
[2], days in culture: 243 | 2.23 | 2.46 | 1.58 | 2.71 | 2.27 | 2.37 | 1.29 | 3.76
[2], days in culture: 256 | 1.88 | 2.23 | 1.63 | 3.14 | 2.13 | 1.8 | 0.605 | 2.46
[2], days in culture: 284 | 1.65 | 2.5 | 2.04 | 2.56 | 1.9 | 2.78 | 0.731 | 4.06
[3], days in culture: 223 | 2.23 | 2.46 | 1.71 | 1.94 | 1.21 | 1.61 | 1.04 | 1.86
[3], days in culture: 238 | 1.53 | 1.27 | 1.67 | 1.48 | 1.87 | 1.53 | 0.908 | 1.59
[3], days in culture: 252 | 2.28 | 1.93 | 1.66 | 1.79 | 1.79 | 1.92 | 1.35 | 1.91
[5], days in culture: 173 | 2.68 | 2.28 | 1.24 | 2.55 | 2.78 | 1.39 | 1.9 | 2.01
[5], days in culture: 194 | 3.12 | 1.02 | 3.29 | 2.76 | 2.08 | 1.97 | 1.02 | 1.43
[5], days in culture: 215 | 1.93 | 1.31 | 2.06 | 1.48 | 1.83 | 1.35 | 1.38 | 1.73

[4]
Conditions | CTG-3D luminescence at 96 h
12.5 pM | 5.2
0.00025 µM | 5.24
0.005 µM | 5.27
0.1 µM | 5.18
1 µM | 5.16
10 µM | 4.35
100 µM | 1.02
625 fM | 5.32

From the supplement of paper PMC8882468
